Measurements reported in ChEMBL document CHEMBL2157943, “Role of the side chain stereochemistry in the α-glucosidase inhibitory activity of kotalanol, a potent natural α-glucosidase inhibitor. Part 2” (Bioorg Med Chem, 2012).

Tests used:
[1] = target: T1, Sucrase-isomaltase, intestinal (Rattus norvegicus, UniProt P23739); experiment: Inhibition of rat small intestinal isomaltase after 30 mins by glucose-oxidase method
[2] = target: T1, Sucrase-isomaltase, intestinal; experiment: Inhibition of rat small intestinal sucrase after 30 mins by glucose-oxidase method
[3] = target: Lysosomal alpha-glucosidase (Rattus norvegicus) (UniProt Q6P7A9); settings: 100 ug/ml
Description: Inhibition of rat small intestinal maltase at 100 ug/ml after 30 mins by glucose-oxidase method

[4] = target: Sucrase-isomaltase, intestinal (Rattus norvegicus) (UniProt P23739); settings: 100 ug/ml
Sequence of Sucrase-isomaltase, intestinal (Rattus norvegicus) (P23739 1-1013 limits assumed): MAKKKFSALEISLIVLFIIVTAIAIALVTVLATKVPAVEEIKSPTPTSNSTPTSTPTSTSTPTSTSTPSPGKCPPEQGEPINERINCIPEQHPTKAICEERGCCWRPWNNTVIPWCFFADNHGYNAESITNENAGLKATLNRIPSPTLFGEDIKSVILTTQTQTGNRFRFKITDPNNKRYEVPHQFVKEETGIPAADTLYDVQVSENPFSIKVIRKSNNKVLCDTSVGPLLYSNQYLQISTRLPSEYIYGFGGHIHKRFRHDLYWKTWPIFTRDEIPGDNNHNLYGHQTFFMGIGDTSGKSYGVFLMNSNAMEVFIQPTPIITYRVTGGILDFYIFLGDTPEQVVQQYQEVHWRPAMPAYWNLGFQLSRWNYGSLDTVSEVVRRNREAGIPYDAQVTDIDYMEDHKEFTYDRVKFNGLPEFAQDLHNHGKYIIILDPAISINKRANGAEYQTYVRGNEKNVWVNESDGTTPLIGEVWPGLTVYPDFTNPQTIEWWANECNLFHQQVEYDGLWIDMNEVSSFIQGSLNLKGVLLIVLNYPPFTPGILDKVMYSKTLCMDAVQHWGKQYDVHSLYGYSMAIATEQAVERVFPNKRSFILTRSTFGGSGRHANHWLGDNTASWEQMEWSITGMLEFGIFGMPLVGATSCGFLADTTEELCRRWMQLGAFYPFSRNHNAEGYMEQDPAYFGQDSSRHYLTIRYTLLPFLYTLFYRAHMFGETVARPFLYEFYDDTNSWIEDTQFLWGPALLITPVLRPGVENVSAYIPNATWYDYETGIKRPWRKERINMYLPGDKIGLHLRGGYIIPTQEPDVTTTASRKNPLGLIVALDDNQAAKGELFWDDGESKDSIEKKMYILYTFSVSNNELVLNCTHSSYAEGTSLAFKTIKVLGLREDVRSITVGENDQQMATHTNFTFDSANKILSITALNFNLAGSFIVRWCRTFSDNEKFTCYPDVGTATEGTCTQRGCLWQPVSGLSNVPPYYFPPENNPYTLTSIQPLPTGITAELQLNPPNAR
Sequence of Sucrase-isomaltase, intestinal (Rattus norvegicus) (P23739 1014-1841 limits assumed): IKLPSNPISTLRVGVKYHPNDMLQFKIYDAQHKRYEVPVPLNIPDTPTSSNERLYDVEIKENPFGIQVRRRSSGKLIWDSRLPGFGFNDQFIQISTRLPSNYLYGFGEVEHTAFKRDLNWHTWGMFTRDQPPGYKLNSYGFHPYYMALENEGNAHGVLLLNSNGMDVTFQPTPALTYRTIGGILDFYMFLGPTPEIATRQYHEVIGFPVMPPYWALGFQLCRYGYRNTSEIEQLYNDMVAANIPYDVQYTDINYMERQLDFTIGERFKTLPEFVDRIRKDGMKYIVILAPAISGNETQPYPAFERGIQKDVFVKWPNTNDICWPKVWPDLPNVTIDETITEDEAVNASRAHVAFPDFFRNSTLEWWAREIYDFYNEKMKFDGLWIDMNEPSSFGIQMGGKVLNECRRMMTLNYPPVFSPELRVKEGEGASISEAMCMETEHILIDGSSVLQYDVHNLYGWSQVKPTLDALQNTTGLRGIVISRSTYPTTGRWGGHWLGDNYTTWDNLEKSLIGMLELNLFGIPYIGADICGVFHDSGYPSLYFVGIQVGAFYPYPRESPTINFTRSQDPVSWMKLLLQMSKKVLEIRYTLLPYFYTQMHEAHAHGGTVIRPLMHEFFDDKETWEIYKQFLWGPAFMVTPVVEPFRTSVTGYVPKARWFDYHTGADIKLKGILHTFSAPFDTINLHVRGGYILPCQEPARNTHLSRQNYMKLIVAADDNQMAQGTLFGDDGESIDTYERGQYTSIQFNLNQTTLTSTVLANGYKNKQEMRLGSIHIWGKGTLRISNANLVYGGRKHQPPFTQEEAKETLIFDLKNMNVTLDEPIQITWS
Description: Inhibition of rat small intestinal sucrase at 100 ug/ml after 30 mins by glucose-oxidase method

Sequence of Lysosomal alpha-glucosidase (Rattus norvegicus) (Q6P7A9 whole entry): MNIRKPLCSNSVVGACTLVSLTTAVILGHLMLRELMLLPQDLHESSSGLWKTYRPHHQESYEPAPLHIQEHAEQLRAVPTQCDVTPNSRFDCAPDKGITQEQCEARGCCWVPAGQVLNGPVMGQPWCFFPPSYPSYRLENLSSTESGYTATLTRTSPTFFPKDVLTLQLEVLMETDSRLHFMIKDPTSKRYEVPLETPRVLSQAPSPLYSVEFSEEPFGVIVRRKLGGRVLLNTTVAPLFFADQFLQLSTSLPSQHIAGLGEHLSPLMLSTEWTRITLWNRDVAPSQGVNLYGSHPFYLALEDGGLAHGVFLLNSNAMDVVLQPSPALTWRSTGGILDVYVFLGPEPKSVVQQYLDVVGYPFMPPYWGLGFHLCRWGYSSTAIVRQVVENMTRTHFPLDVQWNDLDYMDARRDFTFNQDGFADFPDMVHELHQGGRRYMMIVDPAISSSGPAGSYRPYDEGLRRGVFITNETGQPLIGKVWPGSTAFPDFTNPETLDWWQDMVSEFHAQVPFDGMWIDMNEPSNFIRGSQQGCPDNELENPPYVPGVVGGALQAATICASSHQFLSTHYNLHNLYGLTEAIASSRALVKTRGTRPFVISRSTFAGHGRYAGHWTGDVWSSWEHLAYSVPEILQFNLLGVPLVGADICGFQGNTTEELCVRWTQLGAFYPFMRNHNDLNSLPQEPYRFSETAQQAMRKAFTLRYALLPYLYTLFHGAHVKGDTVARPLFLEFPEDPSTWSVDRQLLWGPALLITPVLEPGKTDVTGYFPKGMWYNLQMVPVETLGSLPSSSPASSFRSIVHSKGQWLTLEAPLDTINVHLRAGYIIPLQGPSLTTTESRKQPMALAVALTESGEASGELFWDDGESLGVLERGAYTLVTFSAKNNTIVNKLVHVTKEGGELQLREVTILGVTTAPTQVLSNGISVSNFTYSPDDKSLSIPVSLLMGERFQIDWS
T1 sequence (P23739 1-1013 limits assumed): as the sequence (P23739 1-1013 limits assumed) above
T1 sequence (P23739 1014-1841 limits assumed): as the sequence (P23739 1014-1841 limits assumed) above

SMILES	IC50 [1] [µM]	IC50 [2] [µM]	inhibition [3] [%]	inhibition [4] [%]
O=S(=O)([O-])O[C@@H]([C@@H](O)[C@H](O)[C@@H](O)CO)[C@H](O)C[S@+]1C[C@@H](O)[C@H](O)[C@H]1CO	11	136	42	
O=S(=O)([O-])O[C@@H]([C@@H](O)[C@H](O)[C@H](O)CO)[C@H](O)C[S@+]1C[C@@H](O)[C@H](O)[C@H]1CO	16	214	44	
O=S(=O)([O-])O[C@@H]([C@@H](O)[C@@H](O)[C@H](O)CO)[C@H](O)C[S@+]1C[C@@H](O)[C@H](O)[C@H]1CO	1.6	67		
O=S(=O)([O-])O[C@H]([C@@H](O)[C@@H](O)[C@@H](O)CO)[C@H](O)C[S@+]1C[C@@H](O)[C@H](O)[C@H]1CO	21	> 236	45	34
O=S(=O)([O-])O[C@@H]([C@@H](O)[C@@H](O)[C@@H](O)CO)[C@H](O)C[S@+]1C[C@@H](O)[C@H](O)[C@H]1CO	6.5	32		

Further lines, results first:

IC50 [1] [µM]	IC50 [2] [µM]	inhibition [3] [%]	inhibition [4] [%]	SMILES
20	> 236	32	28	O=S(=O)([O-])O[C@H]([C@@H](O)[C@H](O)[C@@H](O)CO)[C@H](O)C[S@+]1C[C@@H](O)[C@H](O)[C@H]1CO
58	55			O=S(=O)([O-])O[C@H]([C@@H](O)[C@H](O)[C@H](O)CO)[C@H](O)C[S@+]1C[C@@H](O)[C@H](O)[C@H]1CO
16	> 236	25	8	O=S(=O)([O-])O[C@H]([C@@H](O)[C@@H](O)[C@H](O)CO)[C@H](O)C[S@+]1C[C@@H](O)[C@H](O)[C@H]1CO (mixture of isomers)
